Data reported in the supplement of paper PMC10307832.

Legend:
Experiment in all cases: relative viability (nuclei count vs DMSO), 5 days (fraction); higher = more cells survive
Ibrutinib + Trametinib = compound: C=CC(=O)N1CCC[C@@H](n2nc(-c3ccc(Oc4ccccc4)cc3)c3c(N)ncnc32)C1 [Ibrutinib] + CC(=O)Nc1cccc(-n2c(=O)n(C3CC3)c(=O)c3c(Nc4ccc(I)cc4F)n(C)c(=O)c(C)c32)c1 [Trametinib] (partner 0.02 µM)
Procedure, shortened: (§1)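 Dosing by pin tool came one day after lung cancer cell lines were seeded in 1536-well plates, using either one drug or a fixed anchor-drug dose plus five library-drug doses (not always all listed) in √10 steps. After 5 days, nuclei were counted on 4× images. Relative viability is treated-well nuclei count divided by vehicle-well nuclei count, and values are medians of duplicate plates.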

Ibrutinib + Foretinib = compound: C=CC(=O)N1CCC[C@@H](n2nc(-c3ccc(Oc4ccccc4)cc3)c3c(N)ncnc32)C1 [Ibrutinib] + COc1cc2c(Oc3ccc(NC(=O)C4(C(=O)Nc5ccc(F)cc5)CC4)cc3F)ccnc2cc1OCCCN1CCOCC1 [Foretinib] (partner 0.25 µM)
Procedure, shortened: as §1

Ibrutinib + Tozasertib = compound: C=CC(=O)N1CCC[C@@H](n2nc(-c3ccc(Oc4ccccc4)cc3)c3c(N)ncnc32)C1 [Ibrutinib] + Cc1cc(Nc2cc(N3CCN(C)CC3)nc(Sc3ccc(NC(=O)C4CC4)cc3)n2)n[nH]1 [Tozasertib] (partner 0.1 µM)
Procedure, shortened: as §1

Ibrutinib + Dasatinib = compound: C=CC(=O)N1CCC[C@@H](n2nc(-c3ccc(Oc4ccccc4)cc3)c3c(N)ncnc32)C1 [Ibrutinib] + Cc1nc(Nc2ncc(C(=O)Nc3c(C)cccc3Cl)s2)cc(N2CCN(CCO)CC2)n1 [Dasatinib] (partner 0.075 µM)
Procedure, shortened: as §1

Row | Cell Line | relative viability (Ibrutinib + Trametinib; first compound 0.005 µM) | relative viability (Ibrutinib + Trametinib; first compound 0.01581 µM) | relative viability (Ibrutinib + Trametinib; first compound 0.05 µM) | relative viability (Ibrutinib + Trametinib; first compound 0.1581 µM) | relative viability (Ibrutinib + Trametinib; first compound 0.5 µM) | relative viability (Ibrutinib + Foretinib; first compound 0.005 µM) | relative viability (Ibrutinib + Foretinib; first compound 0.01581 µM) | relative viability (Ibrutinib + Foretinib; first compound 0.1581 µM) | relative viability (Ibrutinib + Foretinib; first compound 0.5 µM) | relative viability (Ibrutinib + Tozasertib; first compound 0.005 µM) | relative viability (Ibrutinib + Tozasertib; first compound 0.01581 µM) | relative viability (Ibrutinib + Tozasertib; first compound 0.05 µM) | relative viability (Ibrutinib + Tozasertib; first compound 0.1581 µM) | relative viability (Ibrutinib + Tozasertib; first compound 0.5 µM) | relative viability (Ibrutinib + Dasatinib; first compound 0.005 µM) | relative viability (Ibrutinib + Dasatinib; first compound 0.01581 µM) | relative viability (Ibrutinib + Dasatinib; first compound 0.05 µM) | relative viability (Ibrutinib + Dasatinib; first compound 0.1581 µM) | relative viability (Ibrutinib + Dasatinib; first compound 0.5 µM) | relative viability (Ibrutinib + Foretinib; first compound 0.05 µM)
1 | NCI-H460 | 0.133 | 0.0919 | 0.195 | 0.13 | 0.152 | 1.06 | 0.909 | 1.01 | 0.992 | 0.716 | 0.321 | 0.519 | 0.409 | 0.494 | 0.548 | 0.42 | 0.491 | 0.286 | 0.603 | –
2 | NCI-H1648 | 0.565 | 0.433 | 0.316 | 0.418 | 0.257 | – | – | – | – | 0.549 | 0.368 | 0.467 | 0.537 | 0.358 | – | – | – | – | – | –
3 | HCC-44 | 1.04 | 1.04 | 0.992 | 1.19 | 1.06 | – | – | – | – | 1.1 | 0.945 | 0.734 | – | 0.998 | – | – | – | – | – | –
4 | NCI-H647 | 0.415 | 0.445 | 0.478 | 0.443 | 0.529 | – | 1.13 | 1.25 | 1.17 | – | 0.298 | 0.39 | 0.347 | 0.174 | – | 0.164 | 0.167 | 0.206 | 0.174 | 1.23
5 | Calu-6 | – | – | – | – | – | 0.961 | 0.853 | 0.844 | 0.826 | – | – | – | – | – | – | – | – | – | – | 0.918
6 | 201T | 0.721 | 0.708 | 0.695 | 0.712 | 0.683 | 1.02 | 1 | 1.03 | 1.08 | 0.984 | 0.916 | 0.971 | 0.959 | 0.849 | 0.58 | 0.517 | 0.6 | 0.58 | 0.608 | 0.965
7 | CAL-12T | 0.236 | 0.297 | 0.3 | 0.382 | 0.298 | 1.11 | 0.958 | 1.14 | 1.19 | 0.324 | 0.309 | 0.268 | 0.365 | 0.151 | 0.363 | 0.295 | 0.354 | 0.475 | 0.24 | 0.981
8 | HCC-78 | – | 0.569 | 0.622 | 0.698 | 0.706 | 0.651 | 0.489 | 0.547 | 0.348 | 0.577 | 0.327 | 0.434 | 0.494 | 0.343 | 0.309 | 0.402 | 0.304 | 0.312 | 0.267 | 0.527
9 | LK-2 | 0.931 | 0.7 | 0.816 | 0.702 | 0.668 | – | – | 1.27 | 0.996 | – | 0.165 | 0.185 | 0.168 | 0.157 | – | 0.273 | 0.278 | 0.224 | 0.293 | 1.32
